Experimental data: patent US11465989B2, “Guanidine compounds and use thereof” (IMMUNOMET THERAPEUTICS INC., priority 2014, dated 2022)
Counter-ions that a name gives are not always drawn. Like-named read-outs stand apart in the source and are kept apart here.

Assays:
SK-MEL-28 cells = experiment: Cytotoxicity in low glucose condition (MTT); type: cell-based; details: SK-MEL-28, 0.75 mM glucose, 72 hours, read-out: SK-MEL-28 0.75 mM glucose Cell viability (IC50 ia)
From the text: The inhibition of oxidative phosphorylation (OXPHOS) is not cytotoxic to cells in normal glucose condition, because it is postulated that normal cells have compensatory mechanism under energy stress conditions such as low glucose. However OXPHOS inhibitors show cytotoxic effect on cells in the glucose deprived condition (BirsoyK, 2014). The glucose deprived condition is observed in tumor microenvironment potentially due to poor angiogenesis. Therefore the OXPHOS inhibitors may show anti-cancer effect on cancer cells in low glucose condition that may depict tumor microenvironment.
The compounds of the present invention were evaluated their cytotoxicity in SK-MEL-28, melanoma with 0.75 mM glucose supplement. The cytotoxic effect is compared with the cytotoxicity caused by phenformin. The cytotoxicity in low glucose condition is correlated with inhibition of oxygen consumption in mitochondria.
SK-MEL-28 (HTB-72) is a melanoma cell line obtained from ATCC (MA) and cultured in RPMI 1640 media (Lifetechnologies, CA) with supplement of 10% FBS and antibiotic-antimycotic (Lifetechnologies, CA). RPMI 1640 (-Glucose) was used to prepare low glucose media and 0.75 mM glucose was supplied with D-(+)-glucose solution from Sigma. SK-MEL-28 cells were separated from culture plate using 0.5% trypsin-EDTA and 5,000 cells were plated in 96-well plate with low glucose media. After incubation at 37° C. for 24 hour, 5% CO2, the cells were treated with the compounds of present invention in FBS-free media for 72 hours. The cytotoxicity was measured by the MTT (AMRESCO, OH) assay. NADH-dependent cellular oxidoreductase reduces MTT to its insoluble […] with purple color. The enzyme depends on cell number or energy state of cells. 10 μl of 5 mg/ml MIT solution was added to each well of the assay plate and skip the well for blank. The plate was incubated at 37° C. and 5% CO2 for 2 hours. The MTT solution was removed from each well and 100 μl of DMSO was added. The plate was read by VICTOR X3 Multilabel Counter at the wavelength of 550 nm. In Table 2, the levels of IC50 are evaluated by the following criteria.

A549 cells = experiment: Inhibition of OCR (XF Analyzer); type: cell-based
From the text: The electron transfer complex in mitochondria is composed of 5 complexes. The complex I accept electrons from NADH produced from glycolysis and TCA cycle and the electrons move to complex […] and the electron is finally transferred to O2 and water molecule is generated. During the electron transfer, proton gradient is generated and the chemical gradient is a driving source to synthesize ATP at complex V. The mitochondrial inhibition of complex I indirectly assessed by measuring the oxygen consumption rate (OCR) at complex IV. […] The solution outside of cells becomes acidic (lower pH) as lactate is transported to outside of cells. OCR and Extracellular acidification rate (ECAR) are determined by XF Analyzer (Seahorse Biosciences).
A549 cells were purchased from American Type Tissue Culture Collection ([…]) and cultured in RPMI 1640 supplied with 10% fetal bovine serum (FBS) and antibiotic-antimycotic (Lifetech, CA). A549 cells were separated with 0.5% Trypsin-EDTA and 3,000 cells were plated on 1 mg/ml poly-D-lysine (Sigma, P6407) coated XF 96 well […]. A549 cells were allowed to adhere to the wells for 24 hours under the condition of temperature, 37° C. and 5% CO2 The sensor cartridge of XF Analyzer was soaked in 200 Ad of Calibrant solution (Seahorse, MA) in a clear 96-well plate at 37° C. for 24 hours. The compounds of the present invention were diluted with RPMI 1640 without FBS, transferred to A549 cells on XF 96 well plate, and incubated further for 23 hours at 37° C. and 5% CO2. After incubation, the compound solution was exchanged with pre-warmed and pH adjusted (pH7.4) XF assay media (Seahorse) supplied with 15 mM D-glucose (Sigma), 15 mM sodium pyruvate (Lifetechnologies, CA) and 4 mM L-glutamine (Lifetechnologies, CA). The compounds of present invention were prepared in XF Assay media and added to the assay plate. The assay plate was equilibrated in XF Analyzer for 1 hour, and the reading were started by sensor cartridge. The cytotoxicity assay was followed using Cyquant (Lifetechnologies, CA) in order to calibrate the inhibition with cytotoxicity of compounds. The concentrations of the compounds were tested at […] and IC50 value was obtained from the inhibited values. That is, from OCR inhibition values at each concentration of the compound, IC50 was calculated according to Prism's dose response curve fitting.
In Table 1, the levels of OCR IC50 are evaluated by the following.

IC50 (A549 cells; Homo sapiens, A549, 24 h) [µM]	SMILES	IC50 (SK-MEL-28 cells; Homo sapiens) [µM]	IC50 (SK-MEL-28 cells) [µM]	IC50 (A549 cells; A549, 24 hrs) [µM]
2 to 5	N=C(N)NCCC1CCCCC1 [Example 197, 1-(2-cyclohexylethyl)guanide hydrochloride]	> 10	–	–
2 to 5	N=C(N)NCCc1ccc(C2CC2)cc1 [Example 182, 1-(4-cyclopropylphenethyl)guanide hydrochloride]	5 to 10	–	–
2 to 5	Cc1ccc(CCNC(=N)NC(=N)N)cc1Cl [Example 50, N-1-(3-chloro-4-methyl)phenethylbiguanide hydrochloride]	< 5	–	–
< 2	Cc1ccccc1CCNC(=N)NC(=N)N [Example 22, N-1-(2-methyl)phenethylbiguanide hydrochloride]	> 10	–	–
> 5	N=C(N)NC(=N)NCCc1ccc(F)c(Cl)c1 [Example 52, N-1-(3-chloro-4-fluoro)phenethylbiguanide hydrochloride]	5 to 10	–	–
< 2	COc1cc(I)ccc1CCNC(=N)NC(=N)N [Example 79, N-1-(2-methoxy-4-iodo)phenethylbiguanide hydrochloride]	5 to 10	–	–
< 2	N=C(N)NC(=N)NCCc1ccc(Br)c(I)c1 [Example 75, N-1-(3-iodo-4-bromo)phenethylbiguanide hydrochloride]	< 5	–	–
2 to 5	Cc1ccccc1CCNC(=N)N [Example 161, 1-(2-methylphenethyl)guanide hydrochloride]	> 10	–	–
< 2	N=C(N)NCCc1ccc2c(c1)CCCC2 [Example 183, 1-(2-(5,6,7,8-tetrahydronaphthalen-2-yl)ethyl)guanide hydrochloride]	< 5	–	–
> 5	CCCNC(=N)NC(=N)NCCc1ccc(Cl)c(Cl)c1 [Example 128, N-1-propyl-N-5-(3,4-dichloro)phenethylbiguanide hydrochloride]	< 5	–	–
< 2	COc1cc(Cl)ccc1CCNC(=N)NC(=N)N [Example 80, N-1-(2-methoxy-4-chloro)phenethylbiguanide hydrochloride]	> 10	–	–
2 to 5	Cc1cc(CCNC(=N)NC(=N)N)ccc1Cl [Example 61, N-1-(4-chloro-3-methyl)phenethylbiguanide hydrochloride]	< 5	–	–
< 2	N=C(N)NC(=N)NCCc1ccc(I)c(Cl)c1 [Example 78, N-1-(3-chloro-4-iodo)phenethylbiguanide hydrochloride]	< 5	–	–
2 to 5	N=C(N)NCCc1ccc(-c2ccccc2)cc1 [Example 195, 1-(4-phenylphenethyl)guanide hydrochloride]	< 5	–	–
> 5	N=C(N)NCc1c(F)cc(F)cc1F [Example 153, 1-(2,4,6-trifluorobenzyl)guanide hydrochloride]	> 10	–	–
2 to 5	Cc1cc(F)ccc1CCNC(=N)NC(=N)N [Example 17, N-1-(4-fluoro-2-methyl)phenethylbiguanide hydrochloride]	> 10	–	–
< 2	N=C(N)NC(=N)NCCc1ccccc1Br [Example 26, N-1-(2-bromo)phenethylbiguanide hydrochloride]	< 5	–	–

IC50 (A549 cells; Homo sapiens, A549, 24 h) [µM]	SMILES	IC50 (SK-MEL-28 cells; Homo sapiens) [µM]	IC50 (SK-MEL-28 cells) [µM]	IC50 (A549 cells; A549, 24 hrs) [µM]
2 to 5	N=C(N)NCC1CCCCC1 [Example 205, 1-(1-cyclohexylmethyl) guanide hydrochloride]	> 10	–	–
> 5	Cc1ccc(CNC(=N)NC(=N)N)c(C)c1 [Example 18, N-1-(2,4-dimethyl)benzylbiguanide hydrochloride]	> 10	–	–
2 to 5	N=C(N)NCCC1CCCC1 [Example 204, 1-(2-cyclopentylethyl) guanide hydrochloride]	> 10	–	–
2 to 5	N=C(N)NC(=N)NCCc1ccc(Br)c(Br)c1 [Example 70, N-1-(3,4-dibromo)phenethylbiguanide hydrochloride]	< 5	–	–
2 to 5	COc1cc(CCNC(=N)NC(=N)N)ccc1I [Example 77, N-1-(4-iodo-3-methoxy)phenethylbiguanide hydrochloride]	5 to 10	–	–
2 to 5	Cc1cc(CNC(=N)NC(=N)N)ccc1Br [Example 68, N-1-(4-bromo-3-methyl)benzylbiguanide hydrochloride]	5 to 10	–	–
–	N=C(N)NC(=N)NCCc1ccc2c(c1)CCCC2 [Example 30, N-1-(2-(5,6,7,8-tetrahydronaphthalen-2-yl)ethyl)biguanide hydrochloride]	–	< 5	> 5
> 5	N=C(N)NC(=N)NCCc1ccc(I)c(Br)c1 [Example 72, N-1-(4-iodo-3-bromo)phenethylbiguanide hydrochloride]	5 to 10	–	–
< 2	N=C(N)NC(=N)NCCc1ccc(Cl)c(I)c1 [Example 74, N-1-(3-iodo-4-chloro)phenethylbiguanide hydrochloride]	< 5	–	–
> 5	N=C(N)NC(=N)NCc1ccc(-c2ccccc2)cc1 [Example 49, N-1-(4-phenyl)benzylbiguanide hydrochloride]	> 10	–	–
> 5	N=C(N)NCc1ccc2c(c1)CCCC2 [Example 199, 1-((5,6,7,8-tetrahydronaphthalen-2-yl)methylguanide hydrochloride]	> 10	–	–
2 to 5	N=C(N)NC(=N)NCCc1ccc(Cl)c(Br)c1 [Example 76, N-1-(3-bromo-4-chloro)phenethylbiguanide hydrochloride]	< 5	–	–
< 2	N=C(N)NC(=N)NCc1ccc2c(c1)CCCC2 [Example 48, N-1-2-(5,6,7,8-tetrahydronaphthalen-2-yl)methanebiguanide hydrochloride]	> 10	–	–
< 2	COc1cc(Br)ccc1CCNC(=N)NC(=N)N [Example 81, N1-(2-methoxy-4-bromo)phenethylbiguanide hydrochloride]	5 to 10	–	–
> 5	N=C(N)NC(=N)NCc1ccc(Cl)c(Cl)c1 [Example 37, hydrochloride]	5 to 10	–	–
< 2	N=C(N)NC(=N)NCCc1ccccc1Cl [Example 3, N-1-(2-chloro)phenethylbiguanide hydrochloride]	5 to 10	–	–

SMILES	IC50 (A549 cells; Homo sapiens, A549, 24 h) [µM]	IC50 (SK-MEL-28 cells; Homo sapiens) [µM]	IC50 (SK-MEL-28 cells) [µM]	IC50 (A549 cells; A549, 24 hrs) [µM]
Cc1ccc(CCNC(=N)N)cc1C [Example 133, 1-(3,4-dimethylphenethyl)guanide hydrochloride]	< 2	5 to 10	–	–
CNC(=N)NC(=N)NCCc1ccc(Cl)c(Cl)c1 [Example 122, N-1-(3,4-dichloro)phenethyl-N5-methylbiguanide hydrochloride]	> 5	5 to 10	–	–
